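Step 1: Grow cells in 96-well plates. Step 2: Expose to compound for 48 hours at 5 concentrations. Step 3: Interpolate endpoints linearly; if unreached, use highest concentration. Abbreviation: GI50, concentration required for 50% inhibition of growth. Definition used: TGI = concentration required for complete inhibition of growth.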
Legend:
Assay in all cases: inhibition of tumour cell growth, NCI panel, 48 h
[1] = system: UO-31 renal
[2] = system: OVCAR-4 ovarian
[3] = system: SNB-19 CNS
[4] = system: SN12C renal
[5] = system: COLO 205 colon
[6] = system: K-562 leukemia
[7] = system: NCI-H460 lung
[8] = system: OVCAR-8 ovarian
[9] = system: IGROV1 ovarian
[10] = system: RPMI-8226 leukemia

Compound	TGI [1] [µM]	TGI [2] [µM]	TGI [3] [µM]	TGI [4] [µM]	TGI [5] [µM]	TGI [6] [µM]	TGI [7] [µM]	TGI [8] [µM]	TGI [9] [µM]	TGI [10] [µM]	GI50 [1] [µM]	GI50 [2] [µM]	GI50 [4] [µM]	GI50 [9] [µM]	GI50 [10] [µM]	GI50 [5] [µM]	GI50 [6] [µM]	GI50 [7] [µM]	GI50 [8] [µM]	GI50 [3] [µM]
CCCCN(CCCC)CCCCNc1c(C)cnc2cc(Cl)ccc12	25.1	> 100	> 100	> 100	> 100	43.3	> 100	> 100												
Cc1ccc(S(=O)(=O)Oc2cc(S(=O)(=O)O)cc3cc(S(=O)(=O)O)cc(N)c23)cc1	> 100	> 100	> 100	> 100	> 100	> 100	> 100	> 100	> 100	> 100										
CCN(CC)CCCC(Nc1c2ccc(Cl)cc2nc2ccc(OC)cc12)c1ccc(F)cc1 (centres undefined)	3.15	4.71		4.68	4.53	4.26	3.84	10.4	9.06	5.36	1.56	1.71	2.03	3.15	2.18	2.05	2.18	1.91	3.27	
CN1C2C=C(c3ccccc3)CC1CC2 (centres undefined)	> 100		> 100	> 100	> 100	> 100	> 100	> 100	> 100	> 100										
O=C(Nc1ccc(Cl)cc1)/C(Cc1cccc[n+]1[O-])=N\Nc1ccc([N+](=O)[O-])cc1[N+](=O)[O-]	> 100	> 100	> 100	> 100	> 100	> 100	> 100	> 100	> 100	> 100										
c1ccc2c(c1)nc1n2CSC1	> 100		> 100	> 100	> 100	> 100	> 100	> 100	> 100	> 100										
CC1=C[C@]2(CC(C)C3C(CC4(C)C5CCC6C(C)(C)C(=O)CC[C@@]67C[C@@]57CC[C@]34C)O2)OC1=O (some centres undefined)		57.5	83.7	> 100	> 100	> 100	> 100	> 100	> 100	> 100										
CN1CCN(Cc2ccc(NC(=O)c3ccc(C#N)c(C#Cc4cnc(N)c5ncccc45)c3)cc2C(F)(F)F)CC1	2.99		> 100	5.43	> 100				7.01	8.59	1.6		2.19	1.76	2.74	4.02				3.87
CC(=O)[O-].CC(=O)[O-].[NH2-].[Pt+2].c1ccncc1	> 100	> 100	> 100	> 100	> 100	71.6	> 100	40.1	> 100	> 100										
O=C1Nc2ccccc2Nc2nc3cccccc-3c21	> 100	> 100	> 100	> 100	> 100	> 100	> 100	> 100	> 100	> 100										
CC1(C)CCc2cc3c(-c4ccccc4)cc(=O)oc3cc2O1	> 100		> 100	> 100	> 100	> 100	> 100	> 100	> 100	> 100										
Cc1nc2ccccc2c(=O)n1CC(=O)O	> 100	> 100	> 100	> 100	> 100	> 100	> 100	> 100	> 100	> 100										

Source: PubChem BioAssay (NCI)
